Test results reported in US10443078B2, “Pichia kudriavzevii NG7 microorganism and uses thereof” (Korea Research Institute of Bioscience and Biotechnology, priority 2014, dated 2019).
Numbered stars: 1 amine (or outer) side, 2 acyl side, 3 side chain; on linkers, the order of the positions; unused ones are H or OH. Square brackets hold non-standard residues; d marks the D form. Peptide text beside a SMILES is read from it. X1 = CC[C@@H](C)[C@@H](O[*:1])C(=O)[*:2]; NMeVal(β-OH) = CN[C@H](C(=O)O)C(C)(C)O; NMeF = CN[C@@H](Cc1ccccc1)C(=O)O; aIle = CC[C@@H](C)[C@H](N)C(=O)O; NMeV = CN[C@H](C(=O)O)C(C)C

Assays:
Test in all cases: Antibiotic resistance of isolated microorganisms on YPD solid medium
Settings in all cases: zeocin, G418, nourseothricin, hygromycin 100 μg/mL, cycloheximide 1 μg/mL, aureobasidin A 0.1 μg/mL, 30° C.
[1] = test system: NG1 microorganism; format: cell-based, Issatchenkia occidentalis
Description: (§1) The antibiotic resistance of the selected three different kinds of microorganisms to various antibiotics was examined. The antibiotics used were zeocin (100 μg/mL), G418 (100 μg/mL), cycloheximide (1 μg/mL), aureobasidin A (0.1 μg/mL), nourseothricin (100 μg/mL), and hygromycin (100 μg/mL). Each of the cell cultures of the isolated microorganisms was dotted on YPD solid medium (yeast extract (1%), peptone (2%), glucose (2%), and agar (2%)) and cultured at 30° C.

[2] = test system: NG7 microorganism; format: cell-based, Pichia kudriavzevii
Description: as §1

[3] = test system: 2-2 microorganism; format: cell-based, Pichia kudriavzevii
Description: as §1

## CN[C@@H]1[C@@H](O)[C@@H](O[C@@H]2[C@@H](O)[C@H](O[C@H]3O[C@H]([C@@H](C)O)[C@@H](O)[C@H](O)[C@H]3N)[C@@H](N)C[C@H]2N)OC[C@]1(C)O [G418]
[1]
  Resistance of microorganism NG1 to antibiotic: resistance and +
[2]
  Resistance of microorganism NG7 to antibiotic: resistance and +
[3]
  Resistance of microorganism 2-2 to antibiotic: resistance and +

## Cc1c(N)nc([C@H](CC(N)=O)NC[C@H](N)C(N)=O)nc1C(=O)N[C@H](C(=O)N[C@H](C)[C@@H](O)[C@H](C)C(=O)N[C@H](C(=O)NCCC1=N[C@@H](c2nc(C(=O)NCCCCN=C(N)N)cs2)CS1)[C@@H](C)O)[C@@H](O[C@@H]1O[C@@H](CO)[C@@H](O)[C@H](O)[C@@H]1O[C@H]1O[C@H](CO)[C@@H](O)[C@H](OC(N)=O)[C@@H]1O)c1cnc[nH]1 [Zeocin, zeocin]
[1]
  Resistance of microorganism NG1 to antibiotic: +
[1]; listed as zeocin
  Resistance of microorganism NG1 to antibiotic: resistance
[2]
  Resistance of microorganism NG7 to antibiotic: +
[2]; listed as zeocin
  Resistance of microorganism NG7 to antibiotic: resistance
[3]
  Resistance of microorganism 2-2 to antibiotic: +
[3]; listed as zeocin
  Resistance of microorganism 2-2 to antibiotic: resistance

## nourseothricin
[1]
  Resistance of microorganism NG1 to antibiotic: −
[1]; listed as nourseothricin
  Resistance of microorganism NG1 to antibiotic: no resistance
[2]
  Resistance of microorganism NG7 to antibiotic: −
[2]; listed as nourseothricin
  Resistance of microorganism NG7 to antibiotic: no resistance
[3]
  Resistance of microorganism 2-2 to antibiotic: −
[3]; listed as nourseothricin
  Resistance of microorganism 2-2 to antibiotic: no resistance

## CC[C@@H](C)[C@@H]1NC(=O)[C@@H]2CCCN2C(=O)[C@H](Cc2ccccc2)N(C)C(=O)[C@H](Cc2ccccc2)NC(=O)[C@H](C(C)C)N(C)C(=O)[C@@H]([C@H](C)CC)OC(=O)[C@H](C(C)(C)O)N(C)C(=O)[C@H](CC(C)C)NC(=O)[C@H](C(C)C)N(C)C1=O [Aureobasidin A, aureobasidin A] (cyclo(F[NMeF]P[aIle][NMeV]L[NMeVal(β-OH)][X1][NMeV]))
[1]
  Resistance of microorganism NG1 to antibiotic: −
[1]; listed as aureobasidin A
  Resistance of microorganism NG1 to antibiotic: no resistance
[2]
  Resistance of microorganism NG7 to antibiotic: −
[2]; listed as aureobasidin A
  Resistance of microorganism NG7 to antibiotic: no resistance
[3]
  Resistance of microorganism 2-2 to antibiotic: −
[3]; listed as aureobasidin A
  Resistance of microorganism 2-2 to antibiotic: no resistance

## C[C@@H]1C[C@@H]([C@H](O)CC2CC(=O)NC(=O)C2)C(=O)[C@@H](C)C1 [Cycloheximide, cycloheximide]
[1]
  Resistance of microorganism NG1 to antibiotic: +
[1]; listed as cycloheximide
  Resistance of microorganism NG1 to antibiotic: resistance
[2]
  Resistance of microorganism NG7 to antibiotic: +
[2]; listed as cycloheximide
  Resistance of microorganism NG7 to antibiotic: resistance
[3]
  Resistance of microorganism 2-2 to antibiotic: +
[3]; listed as cycloheximide
  Resistance of microorganism 2-2 to antibiotic: resistance
